Results on one molecule are retold here after patent US20250282895A1, “PHARMACEUTICAL COMPOSITIONS OF CHEMOTHERAPEUTIC AGENTS BASED ON BETA-S[…]-AMINO ACID DERIVATIVES” (priority 2021, published 2025).

Each structure is given as a SMILES string. Counter-ions that a name gives are not always drawn.

A short description of the data set: Stability of Compound (1c) hydrochloride salt/SBE6.5-β-CD guest-host inclusion complex in 0.9% saline (HPLC/UV). It is filed as physicochemical. To be noted: SBE6.5-β-CD complex in 0.9% saline. The protocol:
A stock solution was prepared by dissolving 68.8 mg (0.206 mmol) of Compound (1c) (free base) in about 20.0 mL of a mixture of acetonitrile/water (1:1, v/v) with vortexing in a clean graduated glass cylinder (25 mL). A solution of 0.407 mL of 0.5072 M aq. HCl (0.206 mmol, 1.0 eq.; Fluka, 318957) was added with gentle vortexing, and the resulting clear solution was further diluted to 25.0 mL with a mixture of acetonitrile/water (1:1, v/v) with gentle vortexing to afford a stock solution of Compound (1c) as a mono-HCl salt of a concentration 2.75 mg/mL. This solution was filtered through a 0.45 μm nylon syringe filter into a clean 50 mL Erlenmeyer flask. Aliquots of 2.0 mL (2× 1.0 mL; 2× 2.75 mg) of the stock solution were rapidly pipetted into clean 12 mL scintillation vials. The aliquots were frozen at −78° C. (dry ice/acetone bath) and lyophilized at about 100 mTorr for about 16 hours to provide test vials each containing 6.1 mg (0.0165 mmol) of Compound (1c) mono-hydrochloride salt (mono-HCl salt) (corresponding to 5.5 mg of Compound (1c)),free base, as a colorless powdery solid.
A cyclodextrin derivative (270 mg; SBE6.5-β-CD, Captisol®, average MW 2,163 g/mol) was added to 6.1 mg (0.0165 mmol) of(S)-3-amino-4-(5-(bis(2-chloroethyl)amino)-2-methylphenyl) butanoic acid mono hydrochloride salt (Compound (1c) mono-HCl salt) in a 12 mL glass vial and dissolved in 3 mL to 4 mL of double-distilled water by vortexing for about 30 sec to provide a clear, colorless solution. The solution was filtered through a 0.45 μm nylon syringe filter into a 12 mL glass vial. The filter was washed twice with double-distilled water (each about 0.5 mL) to provide a clear colorless solution having a pH from 4.4 to 4.7. The filtered solution was frozen at −78° C. (dry ice/acetone bath) and the solvent was lyophilized off at about 100 mTorr for about 16 hours to provide a colorless powdery solid consisting of 6.1 mg (0.0165 mmol) of Compound (1c) mono-HCl salt (corresponding to 5.5 mg of Compound (1c) as free base) and 270 mg of SBE6.5-β-CD, Captisol®). Several vials with the cyclodextrin derivative/Compound (1c) mono-HCl salt guest-host inclusion complex were prepared according to this method.
The cyclodextrin derivative/Compound (1c) mono-HCl salt guest-host inclusion complex was reconstituted by dissolving the guest-host inclusion complex in 0.86 mL of 0.9% saline to provide 1.0 mL of a solution having a nominal concentration of 6.1 mg/mL of Compound (1c) mono-HCl salt guest-host inclusion complex which equates to a nominal concentration of 5.5 mg/mL of the Compound (1c)) guest-host inclusion complex.
A 0.5 mL aliquot of this solution was diluted with 5.0 mL of 0.9% saline, and the pH adjusted with 5 μL of a saturated aqueous NaHCO3 solution to provide 5.5 mL of a clear, colorless solution having a nominal concentration of 0.5 mg/mL Compound (1c) compound and a pH from 5.3 to 5.5.
A 1.0 mL aliquot of the reconstituted solution was diluted with 4.5 mL of 0.9% saline, and the pH was adjusted with about 10 μL of a saturated aqueous NaHCO3 solution to provide 5.5 mL of a clear, colorless solution having a nominal concentration of 1.0 mg/mL of Compound (1c) and a pH of 5-6.
A 1.0 mL aliquot of the reconstituted solution was diluted with 1.75 mL of 0.9% saline, and the pH was adjusted with about 10 μL of a saturated aqueous NaHCO3 solution to provide 2.75 mL of a clear, colorless solution having a nominal concentration of 2.0 mg/mL of Compound (1c) and a pH of 5-6.
The solutions were placed in glass vials and stored at either room temperature (about 25° C.) or refrigerated (about 0° C.), and the amount of Compound (1c) was measured at intervals using analytical high pressure liquid chromatography coupled to a UV detector (HPLC/UV) as described in Example 4.

Turning to `Cc1ccc(N(CCCl)CCCl)cc1C[C@H](N)CC(=O)O` [Compound (1c)•HCl, (S)-3-amino-4-(5-(bis(2-chloroethyl)amino)-2-methylphenyl) butanoic acid mono hydrochloride salt], the “Compound (1c) (% AUC)” value runs as follows: (nominal 0.125 mg/mL, 0° C., 31 hours) 93 % AUC; (nominal 0.125 mg/mL, 25° C., 2 hours) 98 % AUC; (nominal 0.5 mg/mL, 0° C., 9 hours) 99 % AUC; (nominal 0.5 mg/mL, 25° C., 2 hours) 97 % AUC; (nominal 1.0 mg/mL, 0° C., 31 hours) 100 % AUC; (nominal 1.0 mg/mL, 25° C., 2 hours) 91 % AUC. For the same molecule, the “Compound (1c) (% AUC)” value by setting is: (nominal 2.0 mg/mL, 0° C., 31 hours) 91 % AUC; (nominal 2.0 mg/mL, 25° C., 2 hours) 99 % AUC.
